Reference: patent publication US6417187B2, “1,2,4-triazole based compounds that can be used as insecticides or acaricides and processes” (Dow AgroSciences LLC, priority 2000, dated 2002)

Assays:
Assay type in all cases: in vivo
[1] = test system: cotton aphid (Aphis gossvpii); experiment: Insecticidal test for cotton aphid (squash cotyledon spray); settings: for pest or weed control at 50 ppm: 72 h, read-out: CA: activity at 50 ppm against cotton aphid (% Control rating)
[2] = test system: Sweetpotato Whitefly (Bemisia tabacia); experiment: Insecticidal test for Sweetpotato Whitefly (cotton plant spray); settings: 200 ppm spray on cotton plants, 13 days, reduction of large nymphs; for pest or weed control at 200 ppm: Bemisia, 312 h, read-out: WF: activity at 200 ppm against whitefly (% Control rating)
[3] = test system: Brown Planthopper (Nilaparvata lugens); experiment: Insecticidal test for Brown Planthopper (rice seedling roots in test solution)
[4] = test system: Green Leafhopper (Nephotettix cincticeps); experiment: Insecticidal test for Green Leafhopper (rice seedling roots in test solution)
[5] = 50 ppm spray on infested squash cotyledons, 3 days, population reduction versus untreated
[6] = 10 ppm test solution, rice seedling roots, 3rd instar nymphs, mortality at 6 days

Row | Structure (SMILES) | BPH: activity at 10 ppm against brown planthopper (% Control rating) [3, 6] | GLH: activity at 10 ppm against green leafbopper (% Control rating) [4, 6] | CA: activity at 50 ppm against cotton aphid (% Control rating) [1, 5] | WF: activity at 200 ppm against whitefly (% Control rating) [2] | also measured
1 | CCC#Cc1sc(-c2nc(-c3c(F)cccc3Cl)nn2C)c(Cl)c1Cl [Compound 5] | F (less than 50) | F (less than 50) | – | – | pest or weed control at 50 ppm [1, 5]: 80 to 89%; pest or weed control at 200 ppm [2]: < 50%
2 | Cc1ccncc1C#Cc1sc(-c2nc(-c3c(F)cccc3Cl)nn2C)c(Cl)c1Cl [Compound 21] | F (less than 50) | – | F (less than 50) | – | –
3 | Cn1nc(-c2c(F)cccc2Cl)nc1-c1sc(C#Cc2cc(Cl)c(OCC(F)(F)F)c(Cl)c2)c(Cl)c1Cl [Compound 22] | F (less than 50) | F (less than 50) | F (less than 50) | D (60-69) | –
4 | Cn1nc(-c2c(F)cccc2Cl)nc1-c1sc(C#Cc2ccccn2)c(Cl)c1Cl [Compound 33] | F (less than 50) | F (less than 50) | F (less than 50) | D (60-69) | –
5 | C=C(C)C#Cc1sc(-c2nc(-c3c(F)cccc3Cl)nn2C)c(Cl)c1Cl [Compound 38] | – | – | D (60-69) | F (less than 50) | –
6 | CC=CC#Cc1sc(-c2nc(-c3c(F)cccc3Cl)nn2C)c(Cl)c1Cl [Compound 39] | – | – | – | – | CA: activity at 50 ppm against cotton aphid (% Control rating) ([1]; in vivo): B (key: A: 90-100; B: 80-89; C: 70-79; D: 60-69; E: 50-59; F: less than 50; G: inactive); BPH: activity at 10 ppm against brown planthopper (% Control rating) ([3]; in vivo): F (key: A: 90-100; B: 80-89; C: 70-79; D: 60-69; E: 50-59; F: less than 50; G: inactive); GLH: activity at 10 ppm against green leafbopper (% Control rating) ([4]; in vivo): F (key: A: 90-100; B: 80-89; C: 70-79; D: 60-69; E: 50-59; F: less than 50; G: inactive)
7 | Cc1ccnc(C#Cc2sc(-c3nc(-c4c(F)cccc4Cl)nn3C)c(Cl)c2Cl)c1 [Compound 43] | – | F (less than 50) | F (less than 50) | F (less than 50) | –
8 | Cc1cccc(C#Cc2sc(-c3nc(-c4c(F)cccc4Cl)nn3C)c(Cl)c2Cl)n1 [Compound 44] | – | – | F (less than 50) | F (less than 50) | –
9 | Cc1cccnc1C#Cc1sc(-c2nc(-c3c(F)cccc3Cl)nn2C)c(Cl)c1Cl [Compound 45] | F (less than 50) | F (less than 50) | F (less than 50) | F (less than 50) | –
10 | Cc1cc(C#Cc2sc(-c3nc(-c4c(F)cccc4Cl)nn3C)c(Cl)c2Cl)ccn1 [Compound 57] | – | F (less than 50) | – | F (less than 50) | –
11 | Cc1ccc(C#Cc2sc(-c3nc(-c4c(F)cccc4Cl)nn3C)c(Cl)c2Cl)nc1 [Compound 58] | F (less than 50) | F (less than 50) | F (less than 50) | F (less than 50) | –
12 | Cn1nc(-c2c(F)cccc2Cl)nc1-c1sc(C#Cc2ccc(Br)cc2OC(F)(F)F)c(Cl)c1Cl [Compound 59] | F (less than 50) | F (less than 50) | F (less than 50) | F (less than 50) | –
13 | Cn1nc(-c2c(F)cccc2Cl)nc1-c1sc(C#Cc2ccc(Cl)cn2)c(Cl)c1Cl [Compound 61] | F (less than 50) | F (less than 50) | F (less than 50) | F (less than 50) | –
14 | Cn1nc(-c2c(F)cccc2Cl)nc1-c1sc(C#Cc2ccc(C(F)(F)F)cn2)c(Cl)c1Cl [Compound 62] | F (less than 50) | F (less than 50) | F (less than 50) | F (less than 50) | –
15 | CCOc1ccc(C#Cc2ccc(-c3nc(-c4c(F)cccc4Cl)nn3C)s2)cc1 [Compound 66] | – | F (less than 50) | B (80-89) | F (less than 50) | –
16 | Cn1nc(-c2c(F)cccc2Cl)nc1-c1ccc(C#Cc2ccccc2)s1 [Compound 68] | F (less than 50) | F (less than 50) | A (90-100) | F (less than 50) | –
17 | Cn1nc(-c2c(F)cccc2Cl)nc1-c1ccc(C#Cc2ccccc2F)s1 [Compound 69] | – | F (less than 50) | E (50-59) | F (less than 50) | –
18 | Cn1nc(-c2c(F)cccc2Cl)nc1-c1ccc(C#Cc2ccccc2)cc1 [Compound 70] | – | – | C (70-79) | F (less than 50) | –
19 | CCCc1ccc(C#Cc2ccc(-c3nc(-c4c(F)cccc4Cl)nn3C)cc2)cc1 [Compound 71] | F (less than 50) | – | A (90-100) | F (less than 50) | –
20 | CCCc1ccc(C#Cc2sc(-c3nc(C)nn3C)c(Cl)c2Cl)cc1 [Compound 75] | C (70-79) | F (less than 50) | F (less than 50) | F (less than 50) | –
21 | Cn1nc(-c2ccccc2F)nc1-c1sc(C#Cc2ccc(F)cc2)c(Cl)c1Cl [Compound 79] | F (less than 50) | F (less than 50) | F (less than 50) | D (60-69) | –
22 | CCCc1ccc(C#Cc2sc(-c3nc(-c4c(F)cccc4Cl)n[nH]3)c(Cl)c2Cl)cc1 [Compound 80] | – | – | – | F (less than 50) | –
23 | COc1ccc(C#Cc2ccc(-c3nc(-c4c(Cl)cncc4Cl)nn3C)cc2)cc1 [Compound 88] | – | F (less than 50) | D (60-69) | F (less than 50) | –
24 | COc1ccc(C#Cc2cccc(-c3nc(-c4c(Cl)cncc4Cl)nn3C)c2)cc1 [Compound 89] | – | F (less than 50) | B (80-89) | F (less than 50) | –
25 | C#Cc1ccc(-c2nc(-c3c(F)cccc3Cl)nn2C)c(Cl)c1Cl [Compound 97] | – | – | – | – | pest or weed control at 50 ppm [1, 5]: 80 to 89%; pest or weed control at 200 ppm [2]: < 50%
